From ChEMBL document CHEMBL2321747, “A nonionic inhibitor with high specificity for the UDP-Gal donor binding site of human blood group B galactosyltransferase: design, synthesis, and characterization” (J Med Chem, 2013)
Activity calls are given as the source filed them. No cut-off for these calls is given here.

How the values were obtained:
[1] = target: T1, Beta-1,4-galactosyltransferase 1 (Bos taurus) (UniProt P08037); test: Binding affinity to bovine beta-1,4-galactosyltransferase 1 using UDP-Gal as substrate at 1.5 mM after 15 hrs by NMR spectroscopic analysis in presence of magnesium ions
T1 sequence (whole entry): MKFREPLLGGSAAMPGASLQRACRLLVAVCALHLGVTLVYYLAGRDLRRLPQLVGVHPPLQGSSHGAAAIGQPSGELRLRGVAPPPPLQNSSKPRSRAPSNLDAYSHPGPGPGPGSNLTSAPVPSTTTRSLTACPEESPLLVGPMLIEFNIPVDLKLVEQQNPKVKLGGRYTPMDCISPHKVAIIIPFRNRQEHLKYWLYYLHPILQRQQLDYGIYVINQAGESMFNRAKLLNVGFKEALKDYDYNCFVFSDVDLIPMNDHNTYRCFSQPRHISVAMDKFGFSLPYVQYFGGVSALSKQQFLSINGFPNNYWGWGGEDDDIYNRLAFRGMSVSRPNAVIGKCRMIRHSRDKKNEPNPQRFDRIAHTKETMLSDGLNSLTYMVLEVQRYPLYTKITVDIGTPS

Homo sapiens = species: Homo sapiens; test: (§1) Competitive inhibition of human blood group A N-acetylgalactosaminyltransferase using UDP-GalNac as substrate in presence of magnesium ions
[2] = target: T2, Histo-blood group ABO system transferase (Homo sapiens, UniProt P16442); test: Competitive inhibition of human blood group B Galactosyltransferase using UDP-Gal as substrate by Michaelis-Menten equation analysis in presence of magnesium ions
T2 sequence (P16442 whole entry): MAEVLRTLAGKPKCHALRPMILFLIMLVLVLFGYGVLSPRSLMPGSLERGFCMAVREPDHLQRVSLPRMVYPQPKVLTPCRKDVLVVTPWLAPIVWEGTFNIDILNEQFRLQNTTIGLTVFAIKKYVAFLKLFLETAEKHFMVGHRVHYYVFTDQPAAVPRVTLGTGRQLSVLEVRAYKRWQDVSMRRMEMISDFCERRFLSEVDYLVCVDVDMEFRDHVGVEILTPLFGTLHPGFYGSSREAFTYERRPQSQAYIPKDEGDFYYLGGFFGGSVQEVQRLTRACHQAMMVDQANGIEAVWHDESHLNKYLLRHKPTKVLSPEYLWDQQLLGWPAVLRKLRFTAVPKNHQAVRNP

[3] = target: T2, Histo-blood group ABO system transferase; test: Inhibition of human blood group B Galactosyltransferase using radiolabeled UDP-Gal as substrate in presence of manganese ions
[4] = target: T2, Histo-blood group ABO system transferase; test: Inhibition of human blood group B Galactosyltransferase using UDP-Gal as substrate by STD NMR analysis in presence of magnesium ions
[5] = target: T2, Histo-blood group ABO system transferase; test: Binding affinity to human blood group B Galactosyltransferase after 300 secs by SPR analysis
[6] = target: T2, Histo-blood group ABO system transferase; test: Binding affinity to human blood group B Galactosyltransferase by STD NMR analysis in presence of magnesium ions
[7] = as §1

For `O=c1[nH]c(=O)c2[nH]c(=O)n(C[C@@H](O)[C@H](O)[C@H](O)CO[C@H]3O[C@H](CO)[C@H](O)[C@H](O)[C@H]3O)c2[nH]1`, the inhibition [1] was “Active”, the inhibition (Homo sapiens) was “inactive” and the Ki [2] was 565 µM. It also gave an IC50 [3] of 1600 µM, a Ki [3] of 1500 µM and an IC50 [4] of 389 µM. The Ki [4] was 117 µM, the Kd [5] was 254 µM and the Kd [6] was 182 µM.

With `O=c1[nH]c(=O)c2[nH]c(=O)n(C[C@H](O)[C@H](O)[C@H](O)CO)c2[nH]1` the Ki [7] was 712 µM, the Ki [3] was 1500 µM and the Ki [4] was 361 µM.

In the case of `O=c1[nH]c(=O)c2[nH]c(=O)n(C[C@@H](O)[C@H](O)[C@H](O)CO)c2[nH]1`, the Ki [7] is reported as 1100 µM, the Ki [3] is reported as 2200 µM and the Ki [4] is reported as 571 µM. The Kd [5] was 2300 µM.
